Measured values taken from patent US20230355568A1, “THERAPEUTIC AGENT FOR MALIGNANT MESOTHELIOMA AND METHOD FOR SELECTING PATIENT HAVING MALIGNANT MESOTHELIOMA” (National University Corporation Tokai National Higher …, priority 2020, published 2023).
Counter-ions that a name gives are not always drawn. Bridge positions count the residues as written; N and C are the ends. Square brackets hold non-standard residues; d marks the D form. Peptide text beside a SMILES is read from it. Orn = NCCC[C@H](N)C(=O)O; Mpa = O=C(O)CCS

Experiments:
[1] = test system: malignant mesothelioma cell line NCI-2373; assay: WST-1 assay with oxytocin receptor inhibitor, NCI-2373; type: cell-based; conditions: culture five days, Cligosiban 0-60 μM, other inhibitors 0-80 μM (FIG. 3, FIG. 4)
Protocol: (§1) The procedure is illustrated below. • (1) Cells of malignant mesothelioma cell line NCI-H2052 were seeded on a dish and cultured for one day. • (2) Cligosiban was administered to the dish at a concentration of 0, 5, 10, 15, 20, or 25 μM. • (3) After culture for five days, evaluation with WST-1 assay was performed. The WST-1 assay is an assay method to administer cell proliferation test agent WST-1 (product number: 11644807001, purchased from Roche) and evaluate cell proliferation by a colorimetric method.
The same procedure as that in Example 3 was applied except that the malignant mesothelioma cell line was replaced with NCI-2373 (purchased from ATCC) and Cligosiban was administered to the dish at a concentration of 0, 20, 30, 40, 50, or 60 μM.
The same procedure as that in Example 4 was applied except that the oxytocin receptor inhibitor was replaced with OT-R antagonist 1, which was administered to the dish at a concentration of 0, 20, 40, 60, or 80 μM.
The same procedure as that in Example 6 was applied except that the oxytocin receptor inhibitor was replaced with L368,899 hydrochloride.
The same procedure as that in Example 6 was applied except that the oxytocin receptor inhibitor was replaced with Atosiban.

[2] = test system: malignant mesothelioma cell line NCI-H2052; assay: WST-1 assay with oxytocin receptor inhibitor, NCI-H2052; type: cell-based; conditions: culture five days, Cligosiban 0-25 μM, other inhibitors 0-80 μM (FIG. 3, FIG. 4)
Protocol: as §1
The same procedure as that in Example 3 was applied except that the oxytocin receptor inhibitor was replaced with OT-R antagonist 1 (purchased from MedChemExpress), which was administered to the dish at a concentration of 0, 20, 40, 60, or 80 μM.
The same procedure as that in Example 5 was applied except that the oxytocin receptor inhibitor was replaced with L368,899 hydrochloride (purchased from MedChemExpress).
The same procedure as that in Example 5 was applied except that the oxytocin receptor inhibitor was replaced with Atosiban (purchased from MedChemExpress).

[3] = test system: malignant mesothelioma cell line NCI-H2373; assay: WST-1 assay, combined use of Cligosiban and cisplatin, NCI-H2373; type: cell-based; conditions: Cligosiban 45 μM and/or cisplatin 6 μM, culture five days (FIG. 8)
Protocol: (§2) The procedure is illustrated below. • (1) Cells of malignant mesothelioma cell line NCI-H2373 were seeded on a dish and cultured for one day. • (2) Cligosiban 45 μM and cisplatin (product number 033-20091, purchased from FUJIFILM Wako Pure Chemical Corporation) 6 μM were administered to the dish. • (3) After culture for five days, evaluation with WST-1 assay was performed.
The same procedure as that in Example 21 was applied except that only Cligosiban 45 μM was administered.
The same procedure as that in Example 21 was applied except that neither Cligosiban 45 μM nor cisplatin 6 μM was administered.
The same procedure as that in Example 21 was applied except that only cisplatin 6 μM was administered.

[4] = test system: malignant mesothelioma cell line NCI-H2052; assay: WST-1 assay, combined use of Cligosiban and cisplatin, NCI-H2052; type: cell-based; conditions: Cligosiban 15 μM and/or cisplatin 0.8 μM, culture five days (FIG. 8)
Protocol: as §2
The same procedure as that in Example 21 was applied except that the malignant mesothelioma cell line was replaced with NCI-H2052 and that Cligosiban 15 μM and cisplatin 0.8 μM were administered to the dish.
The same procedure as that in Example 22 was applied except that the malignant mesothelioma cell line was replaced with NCI-H2052 and that Cligosiban 15 μM was administered.
The same procedure as that in Example 23 was applied except that neither Cligosiban 15 μM nor cisplatin 0.8 μM was administered.
The same procedure as that in Example 23 was applied except that only cisplatin 0.8 μM was administered.

[5] = test system: malignant mesothelioma cell line NCI-H2052; assay: Xenograft model: cisplatin and pemetrexed, Cligosiban, and combined use; type: in vivo; conditions: NCI-H2052 subcutaneous in nude mice; Cligosiban oral 60 mg/kg every other day, 10 doses from day 7; cisplatin 2 mg/kg and pemetrexed 25 mg/kg once tail vein day 7; measured two days after tenth dose (FIG. 9)
Protocol: The procedure is illustrated below. • (1) 5.0×10^6 cells of malignant mesothelioma cell line NCI-H2052 (purchased from ATCC) were administered to the subcutaneous left buttock of nude mice (BALB/c nude (nu/nu) female, 6 to 8 weeks old: purchased from Charles River Japan). • (2) After 7 days from the subcutaneous administration, oral administration of Cligosiban (purchased from MedChemExpress) was started, and the oral administration was applied at each dose of 60 mg/kg every other day for a total of 10 doses. • (3) After 7 days from the subcutaneous administration, cisplatin (product number 033-20091, purchased from FUJIFILM Wako Pure Chemical Corporation) 2 mg/kg and pemetrexed disodium heptahydrate (product number 161-26263, purchased from FUJIFILM Wako Pure Chemical Corporation) 25 mg/kg were once injected into a tail vein. • (4) After two days from the tenth oral administration of Cligosiban, the nude mice were dissected, and the subcutaneous tumor weights were measured.
The same procedure as that in Example 25 was applied except that neither cisplatin nor pemetrexed was administered.
The same procedure as that in Example 25 was applied except that neither Cligosiban nor cisplatin and pemetrexed was administered.
The same procedure as that in Example 25 was applied except that Cligosiban was not administered.

[6] = test system: malignant mesothelioma cell line NCI-H2052; assay: Proliferation suppression of malignant mesothelioma cells with Cligosiban using Xenograft model; type: in vivo; conditions: NCI-H2052 subcutaneous in nude mice, Cligosiban oral 60 mg/kg every other day, 10 doses, vs no Cligosiban (FIG. 1)
Protocol: The procedure is illustrated below. • (1) 5.0×10^6 cells of malignant mesothelioma cell line NCI-H2052 (purchased from ATCC) were administered to the subcutaneous left buttock of nude mice (BALB/c nude (nu/nu) female, 6 to 8 weeks old: purchased from Charles River Japan). • (2) After 3 days from the subcutaneous administration, oral administration of Cligosiban (purchased from MedChemExpress) was started, and the oral administration was applied at each dose of 60 mg/kg every other day for a total of 10 doses. • (3) After one week from the tenth oral administration, the nude mice were dissected, and the subcutaneous tumor weights were measured.
The same procedure as that in Example 1 was applied except that no Cligosiban was administered.

SMILES	proliferation of malignant mesothelioma cells (WST-1 assay) [1]	proliferation of malignant mesothelioma cells (WST-1 assay) [2]	proliferation of malignant mesothelioma cells (WST-1 assay) [3]	proliferation of malignant mesothelioma cells (WST-1 assay) [4]	subcutaneous tumor weight [5]	subcutaneous tumor weight ([6]; from day 3, measured one week after tenth dose)	growth of the subcutaneous tumor [6]
Cc1ccccc1N1CCN(S(=O)(=O)C[C@@]23CC[C@H](CC2NC(=O)[C@H](N)CCS(C)(=O)=O)C3(C)C)CC1 (stereo partly drawn) [L368,899 hydrochloride]	proliferation of malignant mesothelioma cells was suppressed	proliferation of malignant mesothelioma cells was suppressed					
CO/N=C1/C[C@@H](C(=O)NC[C@@H](O)c2ccccc2)N(C(=O)c2ccc(-c3ccccc3C)cc2)C1 [OT-R antagonist 1]	proliferation of malignant mesothelioma cells was suppressed	proliferation of malignant mesothelioma cells was suppressed					
CCOc1ccc(C[C@H]2NC(=O)CCSSC[C@@H](C(=O)N3CCC[C@H]3C(=O)N[C@@H](CCCN)C(=O)NCC(N)=O)NC(=O)[C@H](CC(N)=O)NC(=O)[C@H]([C@@H](C)O)NC(=O)[C@H]([C@@H](C)CC)NC2=O)cc1 [Atosiban] ([Mpa][dY](Et)ITNCP[Orn]G-NH2; disulfide 1-6)	proliferation of malignant mesothelioma cells was suppressed	proliferation of malignant mesothelioma cells was suppressed					
N.N.[Cl][Pt][Cl] [cisplatin]			more suppresses proliferation of malignant mesothelioma cells than Comparative example 11 and Comparative example 13	more suppresses proliferation of malignant mesothelioma cells than Comparative example 11 and Comparative example 13			
COCc1nnc(N2CC(Oc3ccc(F)cc3Cl)C2)n1-c1ccc(OC)nc1 [Cligosiban]	more suppresses proliferation of malignant mesothelioma cells	more suppresses proliferation of malignant mesothelioma cells	more suppresses proliferation of malignant mesothelioma cells than Comparative example 11 and Comparative example 13	more suppresses proliferation of malignant mesothelioma cells than Comparative example 11 and Comparative example 13	smaller than the subcutaneous tumor weight of Comparative example 16	smaller than that of Comparative example 1	suppresses growth of the subcutaneous tumor statistically, significantly compared to Comparative example 1
